Reference: PubChem BioAssay AID489027 (Sanford-Burnham Center for Chemical Genomics, 2010)
Activity calls are given as the source filed them. The rule behind the calls is not given here.

What follows are compounds tested against UPR counterscreen luciferase reporter, luminescence (assay: luciferase reporter activation, UPR counterscreen line – cell-based, luminescence, counter-screen for adaptive UPR activator project, dose response (AID 489027)).

SMILES	EC50
Cc1ccc(C)c(N=Cc2c(O)c3ccccc3oc2=O)c1	inactive
CCOC(=O)c1c2ccc(OCC(=O)N/N=C/c3ccc(C)cc3)cc2n2ccccc12	17.3 µM
CN(C)CC/C=C1\c2ccc(F)cc2Sc2cc(F)c(Cl)cc21	> 80 µM (inactive)
CCOC(=O)C1=C(O)/C(=C/c2cn(CC(=O)NCC3CCCO3)c3ccccc23)SC1=Nc1ccc(C)cc1 (stereo not drawn)	> 80 µM (inactive)
N#Cc1cnn2c1nc(N1CCCCC1)c1ccccc12	> 80 µM (inactive)
Cc1cc(N2CCN(c3ccc([N+](=O)[O-])c4cccnc34)CC2)c2ccccc2n1	inactive
Nc1c(C(=O)Nc2ccc(S(=O)(=O)N3CCCC3)cc2)sc2nc3ccc(OC(F)(F)F)cc3cc12	4.39 µM
Cc1cnc(NC(=O)c2cc(S(=O)(=O)N(C)C)ccc2N2CCCC2)s1	4.67 µM
COc1cc(NC(=O)c2ccc(C)cc2C)ccc1NC(=O)c1cc2ccccc2o1	inactive
CCOC(=O)c1nnc(-c2ccccc2)nc1Sc1ccccc1Cl	14.3 µM
COc1ccc(CCn2c(C3CCCCC3)nc3c(c(=O)c4ccccc4n3C)c2=O)cc1	> 80 µM (inactive)
COc1ccc2nc(NC(=O)c3cccc(-c4cc5ccccc5oc4=O)c3)sc2c1	> 80 µM (inactive)
CCOC(=O)c1sc(-c2ccccc2)cc1NC(=O)Nc1ccc([N+](=O)[O-])cc1	16.2 µM
O=C(Nc1ccc(O)c(-c2nc3ccccc3s2)c1)c1cc(=O)c2ccccc2o1	> 80 µM (inactive)
Cc1ccc2c(c1)C(=O)C(=O)N2Cc1ccc(C(F)(F)F)cc1	inactive
Cc1ccc(C(=O)Nc2cc(S(=O)(=O)N3CCOCC3)ccc2N2CCCC2)cc1	inactive
Cc1ccc(-c2nnc(-c3ccc(NC(=O)c4cccs4)cc3)o2)cc1	12.1 µM
OCCCn1c(C2CCCN2c2nc(-c3ccc(Cl)cc3)cs2)nc2cc(Cl)c(N3CCCCC3)cc21 (stereo not drawn)	inactive
COc1ccc2c(c1)[nH]c1c(=O)n(/N=C/C3C(C)C=C(C)CC3C)c(=O)[nH]c12 (stereo not drawn)	inactive
O=C(/C=C1\NC2(CCCC2)Cc2ccccc21)C(=O)N/N=C/c1ccc(O)c(O)c1	10.4 µM
Cc1ccc(Nc2nc(NCCO)c3ccccc3n2)cc1C	> 80 µM (inactive)
COc1ccc(N2CCN(Cc3cc(=O)oc4cc(-c5ccccc5)c(O)cc34)CC2)cc1	> 80 µM (inactive)
Cc1ccc2nc(N(CCCN(C)C)C(=O)c3ccc(S(=O)(=O)N4CCc5ccccc5C4)cc3)sc2c1	10.9 µM
N#Cc1ccccc1/C=N/Nc1nc(-c2ccccc2)c2cc(Cl)ccc2n1	15.7 µM

SMILES	EC50
Cc1ccc(-n2nc3cc(C)c(NC(=S)NC(=O)/C=C/c4ccco4)cc3n2)cc1	11.6 µM
CN(C)CCCNC(=O)c1ccc(-c2nc(-c3ccc(Cl)cc3)cs2)cc1	9.53 µM
CCn1c(/C=C/c2c(C)[nH]c3ccccc23)nc2ccccc2c1=O	> 80 µM (inactive)
Cc1cc(C)nc(SCc2ccc(C(=O)N/N=C/c3cccc(O)c3O)cc2)n1	6.43 µM
Cc1[nH]c2ccccc2c1/C=C/c1nc2ccccc2c(=O)n1-c1ccc([N+](=O)[O-])cc1	> 80 µM (inactive)
CCOc1cc(/C=N/N=C(/N)c2nonc2N)cc(Br)c1OCc1ccc(Cl)cc1	> 80 µM (inactive)
Cc1ccc(-n2c(O)c(/C=N/c3ncc(Br)cc3Br)c(=O)[nH]c2=O)cc1	inactive
Cc1ccc(NC(=O)COc2ccc(/C=C3/SC(=Nc4ccccc4)N(Cc4cccnc4)C3=O)cc2)cc1	19.6 µM
CCC(=O)Nc1nnc(SCC(=O)c2ccc3c(c2)Cc2ccccc2-3)s1	inactive
N/C(=N\c1nc(CSc2ccccn2)cc(=O)[nH]1)Nc1ccc(Cl)cc1Cl	> 80 µM (inactive)
Cc1ccc(/C=C/C(=O)c2cc(Br)ccc2OC(=O)c2ccco2)cc1	inactive
N#C/C(=C/c1ccc(N2CCCC2)c([N+](=O)[O-])c1)c1nc2ccccc2[nH]1	> 80 µM (inactive)
CCOC(=O)c1c(NC(=O)/C=C/C(=O)O)sc(C)c1-c1ccc(C(C)(C)C)cc1	> 80 µM (inactive)
CCCNC(=O)c1c(N)n(-c2ccc3c(c2)OCO3)c2nc3ccccc3nc12	> 80 µM (inactive)
O=c1[nH]c(CSc2ncnc3sc(-c4ccccc4)cc23)nc2ccccc12	> 80 µM (inactive)
Cc1nn(-c2ccccc2)c(C)c1/C=N/NC(=O)CSc1nc2ccccc2c(=O)n1-c1ccc(Br)cc1	7.19 µM
CC(C)N(C(=O)[C@H]1C[C@H](CC(=O)NCc2cccc(C(F)(F)F)c2)C(=O)N2CCc3c([nH]c4ccc(Cl)cc34)[C@]12C)C(C)C	inactive
Cc1ccccc1OCc1nc(-c2ccc(NC(=O)c3ccc4c(c3)OCO4)cc2)no1	inactive
CCOc1ccc(-n2c(C)cc(C(=O)CCl)c2C)cc1	6.73 µM
CCc1cccc(CC)c1NC(=O)/C(C#N)=C/c1ccccc1C(F)(F)F	> 80 µM (inactive)
Cc1ccc(Cc2cnc(NC(=O)/C(C#N)=C/c3ccc(-c4cccc([N+](=O)[O-])c4)o3)s2)cc1	12 µM
CCc1ccc(-c2cc(C(F)(F)F)n3nc(C(=O)Nc4cnn(Cc5ccc(C)cc5)c4)cc3n2)s1	3.35 µM
O=C(N/N=C/c1ccccc1Cl)c1[nH]c2ccc(Br)cc2c1-c1ccccc1	inactive
CCCCNc1c(-c2ccc(-c3ccc(C(C)=O)cc3)c(OC)c2)nc2cc(C)ccn12	> 80 µM (inactive)

SMILES	EC50
Cc1ccc(-c2nc(N/N=C/c3cccc([N+](=O)[O-])c3)c3ccccc3n2)cc1	> 80 µM (inactive)
NCCOc1ccc(C23CC4CC(CC(C4)C2)C3)cc1	8.74 µM
CCOC(=O)c1nnc(-c2ccc(C)cc2)nc1Sc1cccc(Cl)c1	> 80 µM (inactive)
CCOC(=O)c1nnc(-c2ccccc2)nc1Oc1ccc(Cl)cc1	19.6 µM
COC(=O)c1cc([N+](=O)[O-])c(-n2ccnc2)c([N+](=O)[O-])c1	> 80 µM (inactive)
O=C(C[C@@H]1C/C=C/CC[C@H](Cc2ccc(F)cc2)C(=O)OC[C@@H](Cc2ccccc2)NC1=O)N[C@H](CO)Cc1ccccc1	14.4 µM
COc1ccc2oc(-c3ccc(C)c(NC(=O)c4ccc(N5CCOCC5)c([N+](=O)[O-])c4)c3)nc2c1	> 80 µM (inactive)
CCN(CC)c1ccc(N=Cc2c(O)n(-c3ccc(Cl)cc3)c(=O)[nH]c2=O)cc1	20 µM
O=C(C[C@H]1C[C@H](C(=O)N2CCCCC2)[C@@]2(CCc3ccccc3)c3[nH]c4ccc(Cl)cc4c3CCN2C1=O)NCCC1=CCCCC1	inactive
O=CC1=C(c2ccccc2)Oc2ccccc2O1	10.3 µM
CCc1ccc(OCCNc2cc(N3CCNC(C)C3)ccc2[N+](=O)[O-])cc1 (stereo not drawn)	> 80 µM (inactive)
O=c1cc(CN2CCN(c3ccc(F)cc3)CC2)c2cc3c(cc2o1)CCCC3	8.79 µM
Cn1nc(C(F)(F)F)c(/C=N/OC(=O)c2ccccc2Cl)c1SCc1ccccc1Cl	inactive
C=CCOc1ccc(/C=N/N2C(=O)C(CC(=O)Nc3ccc(F)cc3F)SC2=NC)cc1 (stereo not drawn)	> 80 µM (inactive)
O=C(/C=C/c1ccccc1)c1ccccc1O	13.2 µM
COc1cc(/C=C(\C#N)c2nc3ccccc3[nH]2)cc(Br)c1OCc1ccc(F)cc1	15.3 µM
CC(C)(C)C(=O)NC(=S)NNC(=O)C(c1ccccc1)c1ccccc1	2.14 µM
Cc1ccc(Nc2nc(-c3c(C)nc4ccccn34)cs2)cc1	> 80 µM (inactive)
CCCCC1CCC(C(=O)N(CC(C)C)c2c(N)n(CCCC)c(=O)[nH]c2=O)CC1 (stereo not drawn)	> 80 µM (inactive)
CCCc1nc2ccccc2c(=O)n1/N=C/c1ccc(O)c(O)c1	15 µM
Cc1ccc(-n2nc3c(N4CCC(C(=O)NCCc5cccs5)CC4)nnc(C)c3c2C)cc1	> 80 µM (inactive)
CC1CCN(Cc2c(C(=O)N/N=C/c3ccc(C(F)(F)F)cc3)nnn2-c2nonc2N)CC1	> 80 µM (inactive)
Cc1ccc(Cn2c(C(C)Nc3nc(-c4ccc(F)cc4)cs3)nc3cc(Cl)c(Cl)cc32)cc1 (stereo not drawn)	inactive
O=c1cc(CN2CCN(c3ccccc3)CC2)c2cc(O)c(-c3ccccc3)cc2o1	7 µM

SMILES	EC50
OCCCn1c(C2CCCN2c2nc(-c3ccc(F)cc3)cs2)nc2cc(Cl)c(N3CCCCC3)cc21 (stereo not drawn)	> 80 µM (inactive)
C#CCn1c(=NC(=O)c2ccc(S(=O)(=O)N3CCc4ccccc4C3)cc2)sc2cc(S(N)(=O)=O)ccc21	> 80 µM (inactive)
CC(C)CN=C(NS(=O)(=O)c1ccccc1)C(Cl)(Cl)Cl	16.2 µM
COc1cc(/C=C2\CC(C(C)(C)C)C/C(=C\c3cc(OC)c(OC)c(OC)c3)C2=O)cc(OC)c1OC (stereo not drawn)	4 µM
N#C/C(=C\c1ccc(OCc2ccccc2)cc1)C(=O)Nc1nc2c(s1)CCN(Cc1ccccc1)C2	13.3 µM
CC1CCN(Cc2c(C(=O)N/N=C/c3ccc(C(C)(C)C)cc3)nnn2-c2nonc2N)CC1	6.58 µM
CCOC(=O)/C(=N\Nc1ccc(C(C)=O)cc1)c1csc(Nc2ccccc2)n1	inactive
CCOc1ccc(Cn2c3ccc(OC)cc3c3nc4ccccc4nc32)cc1OC	inactive
O=[N+]([O-])c1ccc(Cl)c(-c2ccc(/C=N/c3c(-c4ccco4)nc4ccccn34)o2)c1	inactive
O=C(Nc1ccc(Cl)cc1)Nc1ccccc1Sc1ncc([N+](=O)[O-])s1	inactive
O=Cc1cc2ccccc2nc1SCc1ccc(Cl)cc1	inactive
N#Cc1ccc(-c2ccc(Cl)cc2)nc1SCC(=O)c1cccc(Cl)c1	8.05 µM
Cc1c(C(=O)Nc2nccs2)oc2ccc(Br)cc12	> 80 µM (inactive)
COc1ccc2nc(/C(C#N)=C\c3ccc(Oc4ccc([N+](=O)[O-])cn4)cc3)[nH]c2c1	> 80 µM (inactive)
NS(=O)(=O)c1ccc(N/N=C/c2cn(-c3ccccc3)nc2-c2cccs2)c([N+](=O)[O-])c1	> 80 µM (inactive)
CC1CCN(Cc2c(C(=O)N/N=C/c3ccc(C(C)C)cc3)nnn2-c2nonc2N)CC1	inactive
N#CCC(=O)N/N=C/c1cn(Cc2ccc3ccccc3c2)c2ccccc12	15.6 µM
OCCNc1nc(Nc2ccc(Br)cc2)nc2ccccc12	5.82 µM
CCCOC(=O)c1cccc(Nc2nc(-c3cccnc3)nc3ccccc23)c1	> 80 µM (inactive)
NCCc1c(-c2ccccc2)n(-c2ccccc2)c2ccccc12	17.9 µM
Cc1ccc(Nc2nc(NCc3ccco3)c3ccccc3n2)cc1	> 80 µM (inactive)
